Data on 79 molecules can be found in publication PMC12040169 (PLOS Biology, 2025).

One data set is described as follows: in vitro. The following applies: human, hela cells.
As to `CC(C)CN(/C=N/c1nc(OC(=O)N(c2ccccc2)c2ccccc2)nc2c1ncn2C1CC(O)C(CO)O1)CC(C)C` (stereo not shown) [CBK201170], the viability at 28.5 h, 10 µM was determined as 93%.

Staying with this data set, now noted: human, hela cells, % viability.
Take `COCCOc1cccc(OCCOc2nccnc2N2CCNC[C@H]2C)c1` [CBK048435]: the viability at 28.5 h, 10 µM is 104%.
Still for that read-out and setting: the same measure for `CCOc1cccc(CN2CCCCC2c2[nH]ncc2C(N)=O)n1` (stereo not shown) [CBK304750]: 98.9%; for `CC(C)(C)C1CCC(=NNC(=O)c2ccc(CN3CCOCC3)cc2)CC1` (stereo not shown) [CBK018812]: 97.9%.
The same measure, in the same setting: the same measure for `O=C(Cn1c(-c2cccs2)cc2cccnc21)NCC1CC1` [CBK282553]: 106%; for `CC1CCCN(CC(C)(C)NC(=O)c2ccnn2C(F)F)C1` (stereo not shown) [CBK282099]: 98.4%; for `O=C(OCc1ccccc1)N1CCC(C2OCc3cc(-c4ccc(C(=O)N5CCCCC5)cc4)ccc3O2)CC1` (stereo not shown) [CBK153262]: 93.8%.
Still for that read-out and setting: the same measure for `COc1ncc(-c2nccnc2NCc2ccc(F)cc2)c(OC)n1` [CBK037668]: 96.7%; for `Cc1csc2ncc(C(=O)Nc3ccccc3C(F)(F)F)c(=O)n12` [CBK287456]: 86.4%.
As to `COc1ccc(C(NC(=O)c2ccc(N3C(=O)CCC3=O)cc2)c2ccccc2)cc1` (stereo not shown) [CBK285737], the viability at 28.5 h, 10 µM came out at 93%.
The same measure, in the same setting: the same measure for `Cc1ncoc1C(=O)N1CCC2(C/C=C/C[C@H]3COCC[C@H]3NC(=O)CNC2=O)CC1` [CBK292086]: 89.3%; for `CCOc1ccc2nc(NC3=NC(CC(=O)O)C(=O)N3)nc(C)c2c1` (stereo not shown) [CBK263120]: 103%.
The same measure, in the same setting: then `Cc1nn(CC(C)C(=O)N2CCCC(CN(C)C)C2)c(C)c1Cl` (stereo not shown) [CBK282186], with 102%.
Turning to `Cn1cc(C(=O)N2CCc3nc(-c4ccccc4F)sc3C2)cn1` [CBK281914], the viability at 28.5 h, 10 µM was 89%.
Same read-out and setting: then `O=C(O)Cc1nn(Cc2ccccc2)c(=O)c2ccccc12` [CBK262315], with 115%; and `COc1cc2c(cc1-c1cn(CCN3CCCOC3=O)nn1)CCC2` [CBK306515], with 107%.
Regarding `CCc1nnc(N/N=C/c2ccc(OCc3ccc(F)cc3Cl)c(OC)c2)n1N` [CBK278173C], the viability at 28.5 h, 10 µM was 87.1%.
Same read-out and setting: the same measure for `Cc1cc(C(=O)Nc2nnc[nH]2)ccc1[N+](=O)[O-]` [CBK264719]: 99.7%; for `Cc1[nH]c2ccccc2c1/C=N/c1ccc(/N=C/c2c(C)[nH]c3ccccc23)cc1` [CBK261226]: 83.4%; for `Cc1ncn(Cc2nc(-c3ccsc3)no2)c(=O)c1C` [CBK304158]: 113%.
Consider `Cc1ccc(-c2nc(C)c(C(=O)Nc3ccc(-n4cncn4)nc3)s2)o1` [CBK297770], for which the viability at 28.5 h, 10 µM amounted to 95.3%.
Still for that read-out and setting: then `CCN1C(=O)C2(CC(=O)N(CC3CCCCC3)C2=O)c2cc(C)ccc21` (stereo not shown) [CBK075216], with 98.2%.
For `C#CCn1nnc2ccccc21` [CBK028164], the viability at 28.5 h, 10 µM was found to be 104%.
Same read-out and setting: the same measure for `O=C(O)Cc1csc(NC(=O)c2ccc(N3CCCCC3)c([N+](=O)[O-])c2)n1` [CBK296081]: 84.7%; for `CCOC(=O)Nc1ccc2c(c1)N(C(=O)CCN1CCOCC1)c1ccccc1CC2` [CBK261291C]: 103%; for `CSCCCNC(=O)c1cncc(-c2ccc(C(=O)N3CCOCC3)cc2)c1` [CBK158610]: 92.7%.
The same measure, in the same setting: then `Nc1cccc(Sc2cccc(C(F)(F)F)n2)c1` [CBK115239], with 99.3%; and `CC1CC(=O)C2=C(C1)NN=C(c1cccc(C(F)(F)F)c1)C2` (stereo not shown) [CBK020138], with 86.9%.
In the case of `CC(C)(C)OC(=O)NCc1ccc(CNCc2ccc(-c3ccccc3)cc2)cc1` [CBK056706], the viability at 28.5 h, 10 µM was 96.8%.
Still for that read-out and setting: the same measure for `C=C(C)CN1CCN(Cc2cnn(C3CCCCC3)c2)CC1` [CBK282828]: 98.9%; for `O=C(O)CCC(=O)NCC1(c2ccccc2)CCCC1` [CBK286679]: 89.7%.
Same read-out and setting: then `CC(CCN1CCN(CCO)CC1)c1ccccc1` (stereo not shown) [CBK261876], with 102%.
Same read-out and setting: the same measure for `Cc1ccc(OCC(=O)Nc2sc3c(c2C(N)=O)CCCCC3)c([N+](=O)[O-])c1` [CBK268148]: 101%; for `O=C(Cc1c[nH]c2ccccc12)N1CCCC1c1cccc(Cc2ccccc2F)n1` (stereo not shown) [CBK285799]: 89.7%; for `COc1ccc(-n2c(SCC(=O)c3ccccc3)nc(O)c(Cc3ccccc3)c2=O)cc1` [CBK263398]: 97.7%.
Turning to `COc1cccc(CC(=O)N2CCC(Cc3cccc(-c4cccs4)c3)(C(N)=O)CC2)c1` [CBK285738], the viability at 28.5 h, 10 µM was determined as 96.4%.
Turning to `CS(=O)(=O)NCC1(c2ccccc2)CCN(S(=O)(=O)c2ccc(N3CCOCC3)nc2)CC1` [CBK051634], the viability at 28.5 h, 10 µM worked out at 90%.
Consider `O=C(Cn1c(-c2cccs2)cc2cccnc21)NCc1ccncc1` [CBK282456], for which the viability at 28.5 h, 10 µM turned out to be 104%.
In the case of `Cc1nc(NC(=O)CN2CCN(c3cccc(Cl)c3)CC2)sc1C` [CBK305902], the viability at 28.5 h, 10 µM turned out to be 88.5%.
The same measure, in the same setting: then `CCOC(=O)Cc1csc(SC(C)C(=O)N2CCCc3ccccc32)n1` (stereo not shown) [CBK304228], with 98.9%; and `O=C(O)C1=CC(c2ccccc2)=NS(=O)(=O)N1` [CBK286828], with 108%; and `Cc1c(S(=O)(=O)NCCN(C)C)sc2ccc(C(C)C)cc12` [CBK170357], with 90.2%.
Still for that read-out and setting: the same measure for `Cc1ccc(SCCCn2ccnc2)cc1` [CBK269733C]: 86.3%.
On the same count and under the same terms, then `O=C1N=C(NCC2CCCCC2)SC1CC(=O)N1Cc2ccccc2C1` (stereo not shown) [CBK067016], with 85.1%; and `O=C(Cn1cccc(C(=O)NC2CCCCC2)c1=O)NCC1(c2ccccc2Cl)CC1` [CBK286054], with 94.6%.
With `O=C(O)CCCCCNC(=S)Nc1cccc(Cl)c1` [CBK288446], the viability at 28.5 h, 10 µM was determined as 88.1%.
The same measure, in the same setting: the same measure for `Cc1cc(C#N)ccc1OCC(=O)NC1CCS(=O)(=O)C1` (stereo not shown) [CBK305816]: 84.9%; for `Cc1cc2c(s1)c1cnn(CC(=O)N3CCCC3)c(=O)c1n2C` [CBK284153]: 85.6%; for `Cc1ccc2cc(CN(Cc3ccccc3)S(C)(=O)=O)c(O)nc2c1` [CBK269329]: 94.4%.
On to `Cc1nn(C(C)CC(=O)O)c(C)c1Br` (stereo not shown) [CBK269138], for which the viability at 28.5 h, 10 µM was 91.7%.
The same measure, in the same setting: then `O=[N+]([O-])c1cnc(NS(=O)(=O)c2ccc(-c3ccon3)s2)s1` [CBK067543], with 95.2%; and `Cc1cc(C)c(C)c(C(=O)COC(=O)c2cc(O)nc3ccccc23)c1C` [CBK264066], with 94.8%; and `COCCn1c(CO)nnc1[C@H]1C[C@@H](NC(=O)c2cc(F)ccc2F)C1` [CBK307032], with 85.1%.
As to `CS(=O)(=O)N(CC(=O)NCc1ccccn1)c1ccc(I)cc1` [CBK265369], the viability at 28.5 h, 10 µM is 78.8%.
The same measure, in the same setting: then `Cc1cccc(C)c1-c1cn2ccnc2c(NC2CCOCC2)n1` [CBK037311], with 91.6%; and `Cc1nc(CN2CCCC(NCc3ccc(C(N)=O)cc3)C2)no1` (stereo not shown) [CBK304962], with 88.3%.
As to `COc1ccc(CCNC(=O)CSC(C)C(=O)O)cc1` (stereo not shown) [CBK297493], the viability at 28.5 h, 10 µM is 81.4%.
Regarding `O=S(=O)(CCN1CCN(Cc2ccccc2)CC1)c1ccc(F)cc1` [CBK074809], the viability at 28.5 h, 10 µM stood at 108%.
Still for that read-out and setting: the same measure for `CCOC(=O)C1=C(C)N(CC)C(=O)NC1c1cc(OC)c(OC)c(OC)c1` (stereo not shown) [CBK091912]: 98.3%; for `CCn1ncc(CN2CCN(C(=S)Nc3ccccc3C(F)(F)F)CC2)c1C` [CBK266968]: 96.2%.
On the same count and under the same terms, the same measure for `COc1ccc(F)c(CN(CC(C)(C)CN)C(=O)Nc2c(F)cccc2F)c1` [CBK002405C]: 109%.
Turning to `O=C(NCc1ccccc1)c1ccno1` [CBK200197], the viability at 28.5 h, 10 µM was determined as 86.9%.
Same read-out and setting: the same measure for `COC(=O)CN1CCCC[C@H]2CN(C(=O)C3CCC3)C[C@H]21` [CBK285496]: 103%.
Still for that read-out and setting: then `CC(=O)CCC(=O)N1CCN(C(=O)c2ccc(-c3ccc(S(C)(=O)=O)cc3)cn2)CC1` [CBK160484], with 105%.
Consider `COc1ccc(CN2CCOC(C(=O)O)C2)cc1Cn1cncn1` (stereo not shown) [CBK306919], for which the viability at 28.5 h, 10 µM was 120%.
The same measure, in the same setting: the same measure for `Cc1ccc(C)c2[nH]c(=O)c(CN(Cc3cccnc3)C(=O)NC3CCCCC3)cc12` [CBK068091]: 98.2%; for `CCN(CC)CCCNC(=O)N(CCC#N)C1CCCCC1` [CBK156377]: 95%; for `CCOc1cc(NC2CCN(C(=O)Cc3cc(C)on3)CC2)ncn1` [CBK304689]: 113%.
On the same count and under the same terms, the same measure for `CN1CCc2nc(SCC(=O)NC(C)(C)C)c(C#N)cc2C1` [CBK267445]: 87.4%; for `CC1(C#N)CCCN(C(=O)NC2CCN(Cc3cccc(O)c3)CC2)C1` (stereo not shown) [CBK306787]: 88.2%; for `Cc1ccc(NC(=O)/C=C/C(=O)O)c(NC(=O)c2ccccc2)c1` [CBK286563]: 97.3%.
On to `Brc1ccc(C2(c3nnc(C4CCCO4)o3)CCOCC2)cc1` (stereo not shown) [CBK306258], for which the viability at 28.5 h, 10 µM worked out at 117%.
The same measure, in the same setting: the same measure for `Cn1ccnc1SCCNC(=O)c1cccc(Cn2cccn2)c1` [CBK282112]: 105%; for `CCSc1nnc(Cc2cc(=O)[nH]c(=O)[nH]2)n1-c1ccc(F)cc1` [CBK287500]: 85.2%.
On the same count and under the same terms, then `Nc1cccc(Sc2ccc(C(F)(F)F)cn2)c1` [CBK089606], with 107%; and `Cc1[nH]cnc1CN1CCc2c(c3ccccc3n2C)C1=O` [CBK002383C], with 63.5%; and `CC(C)(C)NC(=O)Cn1cncc1-c1[nH]c2ccccc2c1Cl` [CBK281981], with 105%.

Staying with this data set, now noted: human, hela cells, % viability, bulk resorufin, single well.
Regarding `O=C(Nc1cccc(-c2ccc3c(c2)COC2(CCNCC2)O3)c1)c1cnccn1` [CBK093670], the viability at 28.5 h, 10 µM was 90.5%.
Same read-out and setting: the same measure for `O=[N+]([O-])c1ccccc1CN1CCN(c2ccccc2Cl)CC1` [CBK261572]: 92%.
